From BindingDB's records for doi:10.1021/jm801420y (St. Jude Children'S Research Hospital, 2009)

Key:
[1] = biological target: Zinc finger protein GLI2 (Homo sapiens, UniProt P10070); experiment: Inhibition of Gli2-mediated transcription expressed in human PANC1 cells
[2] = biological target: T1, Zinc finger protein GLI1 (Homo sapiens, UniProt P08151); experiment: Inhibition of Gli1-mediated transcription expressed in human PANC1 cells
T1 sequence (P08151 whole entry): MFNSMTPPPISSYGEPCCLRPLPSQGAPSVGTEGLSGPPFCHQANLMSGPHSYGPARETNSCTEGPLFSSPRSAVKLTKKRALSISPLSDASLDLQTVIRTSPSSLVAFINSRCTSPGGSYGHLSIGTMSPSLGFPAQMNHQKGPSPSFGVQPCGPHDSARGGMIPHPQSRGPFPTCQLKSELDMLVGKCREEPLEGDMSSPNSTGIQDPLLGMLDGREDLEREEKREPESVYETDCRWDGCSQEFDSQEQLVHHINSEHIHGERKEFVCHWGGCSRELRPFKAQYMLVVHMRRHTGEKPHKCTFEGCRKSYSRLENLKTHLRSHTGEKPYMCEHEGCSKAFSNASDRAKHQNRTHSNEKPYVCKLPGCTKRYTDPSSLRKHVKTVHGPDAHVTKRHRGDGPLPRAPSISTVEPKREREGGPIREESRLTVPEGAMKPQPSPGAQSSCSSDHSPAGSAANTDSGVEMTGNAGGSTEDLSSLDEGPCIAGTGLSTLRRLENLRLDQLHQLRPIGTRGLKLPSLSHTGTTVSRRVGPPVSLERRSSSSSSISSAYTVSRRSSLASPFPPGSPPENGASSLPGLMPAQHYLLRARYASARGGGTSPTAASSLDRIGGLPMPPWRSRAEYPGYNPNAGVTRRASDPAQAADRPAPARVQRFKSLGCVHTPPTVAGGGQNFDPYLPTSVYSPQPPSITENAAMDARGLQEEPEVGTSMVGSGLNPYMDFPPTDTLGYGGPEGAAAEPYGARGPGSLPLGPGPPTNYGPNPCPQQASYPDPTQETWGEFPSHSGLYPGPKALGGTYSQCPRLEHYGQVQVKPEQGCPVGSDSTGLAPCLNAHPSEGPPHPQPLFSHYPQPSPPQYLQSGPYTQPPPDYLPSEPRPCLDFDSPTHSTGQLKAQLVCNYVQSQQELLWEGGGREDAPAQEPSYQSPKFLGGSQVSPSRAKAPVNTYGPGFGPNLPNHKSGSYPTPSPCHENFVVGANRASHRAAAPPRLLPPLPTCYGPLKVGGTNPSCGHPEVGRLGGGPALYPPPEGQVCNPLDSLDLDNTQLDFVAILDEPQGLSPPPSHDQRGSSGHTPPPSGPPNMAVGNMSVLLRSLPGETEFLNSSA

[3] = biological target: Sonic hedgehog protein (Mus musculus, UniProt Q62226); experiment: Inhibition of SHH in mouse Shh Light2 cells by GLI-responsive firefly luciferase reporter gene assay
Chain of Sonic hedgehog protein (Mus musculus, UniProt Q62226) (Q62226 25-198 limits assumed): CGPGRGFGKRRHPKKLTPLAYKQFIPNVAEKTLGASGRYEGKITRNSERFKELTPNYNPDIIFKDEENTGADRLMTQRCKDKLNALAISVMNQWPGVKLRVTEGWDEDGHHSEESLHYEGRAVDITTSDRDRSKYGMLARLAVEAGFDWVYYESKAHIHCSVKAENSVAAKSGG

[4] = Inhibition of SHH-mediated mouse C3H10T1/2 cells differentiation into osteoblasts by alkaline phosphatase assay
[5] = biological target: Sonic hedgehog protein (Homo sapiens, UniProt Q15465); experiment: Inhibition of lipid-modified (octylated) form of SHH expressed in mouse s12 cells by luciferase reporter gene assay
Chain of Sonic hedgehog protein (Homo sapiens, UniProt Q15465) (Q15465 24-197 limits assumed): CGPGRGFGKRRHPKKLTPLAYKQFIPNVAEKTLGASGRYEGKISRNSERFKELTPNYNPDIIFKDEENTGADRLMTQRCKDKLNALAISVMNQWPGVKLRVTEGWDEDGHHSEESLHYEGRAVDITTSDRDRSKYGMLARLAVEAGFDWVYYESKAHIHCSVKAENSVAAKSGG

Chain of Zinc finger protein GLI2 (P10070 whole entry): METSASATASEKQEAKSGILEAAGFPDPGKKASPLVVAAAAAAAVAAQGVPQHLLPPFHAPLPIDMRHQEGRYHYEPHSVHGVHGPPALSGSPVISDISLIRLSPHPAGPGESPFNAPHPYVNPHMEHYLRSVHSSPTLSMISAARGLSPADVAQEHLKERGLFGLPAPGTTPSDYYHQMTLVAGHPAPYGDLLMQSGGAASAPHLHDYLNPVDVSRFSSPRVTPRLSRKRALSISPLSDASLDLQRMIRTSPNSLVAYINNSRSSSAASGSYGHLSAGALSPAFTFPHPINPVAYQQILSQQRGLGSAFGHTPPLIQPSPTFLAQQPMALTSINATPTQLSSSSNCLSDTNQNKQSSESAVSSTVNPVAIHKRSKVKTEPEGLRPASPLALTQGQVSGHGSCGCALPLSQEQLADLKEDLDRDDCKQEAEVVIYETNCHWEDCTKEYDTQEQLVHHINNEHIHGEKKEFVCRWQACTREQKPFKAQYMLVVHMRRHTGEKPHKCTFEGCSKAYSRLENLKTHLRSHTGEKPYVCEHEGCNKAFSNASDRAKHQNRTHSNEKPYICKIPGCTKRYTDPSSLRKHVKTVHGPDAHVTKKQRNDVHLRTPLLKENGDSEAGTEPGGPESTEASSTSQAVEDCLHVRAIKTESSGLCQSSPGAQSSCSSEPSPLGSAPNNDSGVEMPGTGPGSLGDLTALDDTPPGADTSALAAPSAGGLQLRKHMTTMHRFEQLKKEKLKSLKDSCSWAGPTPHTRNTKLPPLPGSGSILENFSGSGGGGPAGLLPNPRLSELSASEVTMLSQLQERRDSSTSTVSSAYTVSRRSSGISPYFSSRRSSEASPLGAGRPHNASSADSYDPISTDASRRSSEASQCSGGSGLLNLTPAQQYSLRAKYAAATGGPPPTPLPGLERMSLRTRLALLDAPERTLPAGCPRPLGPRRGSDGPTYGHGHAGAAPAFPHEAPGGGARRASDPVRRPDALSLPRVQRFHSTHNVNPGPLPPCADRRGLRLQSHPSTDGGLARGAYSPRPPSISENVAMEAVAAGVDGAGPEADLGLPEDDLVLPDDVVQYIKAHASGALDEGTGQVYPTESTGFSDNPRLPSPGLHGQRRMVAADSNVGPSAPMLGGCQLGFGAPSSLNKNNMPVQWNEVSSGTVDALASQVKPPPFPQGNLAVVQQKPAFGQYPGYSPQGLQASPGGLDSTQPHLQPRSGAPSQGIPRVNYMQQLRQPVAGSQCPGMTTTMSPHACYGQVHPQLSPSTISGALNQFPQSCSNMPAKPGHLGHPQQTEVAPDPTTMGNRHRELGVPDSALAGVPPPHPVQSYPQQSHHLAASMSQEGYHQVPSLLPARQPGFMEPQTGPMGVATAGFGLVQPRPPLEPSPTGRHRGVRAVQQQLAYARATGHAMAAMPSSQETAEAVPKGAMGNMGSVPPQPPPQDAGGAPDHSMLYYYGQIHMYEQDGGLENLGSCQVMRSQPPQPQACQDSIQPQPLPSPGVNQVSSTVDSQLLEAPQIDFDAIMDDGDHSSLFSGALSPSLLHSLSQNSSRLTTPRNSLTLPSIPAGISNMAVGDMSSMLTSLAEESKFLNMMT

SMILES | IC50 [3] | IC50 [4] | also measured
O=C1NCc2c1c1c3ccccc3[nH]c1c1[nH]c3ccccc3c21 | – | – | IC50 [1]: 2700 nM; IC50 [2]: 1800 nM
CC1=C2C[C@H]3[C@@H](CC=C4C[C@@H](O)CC[C@@]43C)[C@@H]2CC[C@]12O[C@@H]1C[C@H](C)CN[C@H]1[C@H]2C | – | – | EC50 [3]: 500 nM
CC(=O)c1cccc(Nc2nc(-c3ccccc3)cs2)c1 [1-(3-(4-phenylthiazol-2-ylamino)phenyl)ethanone] | 100 nM | – | –
CN(C)c1ccccc1CN1CCCN(Cc2ccccc2N(C)C)C1c1ccncc1 [2-((3-(2-(dimethylamino)benzyl)-2-(pyridin-4-yl)-tetrahydropyrimidin-1(2H)-yl)methyl)-N,N-dimethylbenzenamine] | 5000 nM | – | –
CS(=O)(=O)c1ccc(C(=O)Nc2ccc(Cl)c(-c3ccccn3)c2)c(Cl)c1 [2-chloro-N-(4-chloro-3-(pyridin-2-yl)phenyl)-4-(methylsulfonyl)benzamide] | 3 nM | – | –
c1cc(-c2sc(-c3ccncc3)c(-c3ccncc3)c2-c2ccncc2)ccn1 [4-(3,4,5-tri(pyridin-4-yl)thiophen-2-yl)pyridine] | 5000 nM | – | –
Cc1cccc(C)c1NC(=O)c1ccc(Nc2nc(C3CC3)c3ccccc3n2)cc1 [4-(4-cyclopropylquinazolin-2-ylamino)-N-(2,6-dimethylphenyl)benzamide] | – | 2.8 nM | –
Cc1nn(-c2ccccc2)c(C)c1C=NN1CCN(Cc2ccccc2)CC1 [4-benzyl-N-((3,5-dimethyl-1-phenyl-1H-pyrazol-4-yl)methylene)piperazin-1-amine] | – | < 20 nM | –
CC1=C2C(=O)[C@H]3[C@@H](CC=C4C[C@@H](O)CC[C@@]43C)[C@@H]2CC[C@]12O[C@@H]1C[C@H](C)CN[C@H]1[C@H]2C [5'-hydroxy-2',3,6,15'-tetramethyl-(1'S,2'R,2'R,3R,3aS,5'S,6S,7aR,10'S,11'S)-spiro[perhydrofuro[3,2-b]pyridine-2,14'-tetracyclo[8.7.0.02,7.011,16]heptadeca-7',15'-diene]-17'-one] | – | – | IC50 [5]: 500 nM
COc1ccc(-c2cc(C3CC3)nc(SCC(C)=O)c2C#N)cc1 [6-cyclopropyl-4-(4-methoxyphenyl)-2-(2-oxopropylthio)nicotinonitrile] | – | < 100 nM | –
CCCCCc1ccc(-c2ccc(/C=C/C(=O)N3CCCCC3)cc2)nc1 [(E)-3-(4-(5-pentylpyridin-2-yl)phenyl)-1-(piperidin-1-yl)prop-2-en-1-one] | – | 200 nM | –
CN1CCCc2ccc(NC(=O)c3ccc(Nc4nc(-c5ccccc5)c5ccccc5n4)cc3)cc21 [N-(1-methyl-1,2,3,4-tetrahydroquinolin-7-yl)-4-(4-phenylquinazolin-2-ylamino)benzamide] | – | 5.8 nM | –
Cc1cccc(C)c1NC(=O)c1ccc(Nc2nc(-c3ccccc3)c3cccnc3n2)cc1 [N-(2,6-dimethylphenyl)-4-(4-phenylpyrido[2,3-d]pyrimidin-2-ylamino)benzamide] | – | 3.6 nM | –
CCOc1cc(C(=O)Nc2ccc(Cl)c(-c3nc4ccccc4[nH]3)c2)cc(OCC)c1OCC [N-(3-(1H-Benzo[d]imidazol-2-yl)-4-chlorophenyl)-3,4,5-triethoxybenzamide] | – | 30 nM | –
Cc1nc2ccccn2c1-c1csc(NC(=O)c2ccc3ccccc3c2)n1 [N-(4-(2-methylimidazo[1,2-a]pyridin-3-yl)thiazol-2-yl)-2-naphthamide] | 100 nM | – | –
COc1cc(OC)cc(C(=O)Nc2ccc(Cl)c(-c3nc4ccc(N(C)C)cc4[nH]3)c2)c1 [N-(4-chloro-3-(5-(dimethylamino)-1H-benzo[d]imidazol-2-yl)phenyl)-3,5-dimethoxybenzamide] | – | – | EC50 [3]: 40 nM
CCOc1ccc(Nc2nc(-c3c(C)nc4ccccn34)cs2)cc1 [N-(4-ethoxyphenyl)-4-(2-methylimidazo[1,2-a]pyridin-3-yl)thiazol-2-amine] | 30 nM | – | –
COc1ccc(Cl)cc1Nc1nc(-c2cccnc2)cs1 [N-(5-chloro-2-methoxyphenyl)-4-(pyridin-3-yl)thiazol-2-amine] | 100 nM | – | –
COc1cccc(CN(C(=O)CC(C)(C)C)[C@H]2C[C@@H](C(=O)N3CCNCC3)N(Cc3ccc4c(c3)OCO4)C2)c1 [N-((3S,5S)-1-(benzo[d][1,3]dioxol-5-ylmethyl)-5-(piperazine-1-carbonyl)pyrrolidin-3-yl)-N-(3-methoxybenzyl)-3,3-dimethylbutanamide] | – | – | IC50 [5]: 100 nM
C[C@]12C(=O)C=CCC1=CC[C@@H]1[C@@H]2CC[C@]2(O)C(=O)O[C@@]3(C)[C@H]4C[C@]5(C)[C@@H](CO[C@@]16O[C@@]32[C@H]5C6=O)C(=O)O4 [NSC-287088] | – | – | IC50 [2]: 620 nM
C[C@@]12C[C@H]3OC(=O)[C@@H]1CO[C@]14O[C@]5([C@H]2C1=O)[C@@](O)(CC[C@H]1[C@H]4C[C@H]2O[C@]24CC=CC(=O)[C@]14C)C(=O)O[C@@]35C [PHYSALIN F] | – | – | IC50 [2]: 660 nM
C/C1=C\CC(C)(C)/C=C/C(=O)/C(C)=C/CC1 [Zerumbone] | – | – | IC50 [1]: 910 nM; IC50 [2]: 7100 nM
